Measured values: patent US7595176B2, “Methods and reagents for quantitative analysis of Dehalococcoides species” (Georgia Tech Research Corporation, priority 2003, dated 2009)

Columns and labels:
[1] = 25° C.; Gossett 1987; cited from earlier work
[2] = tested on: VC-dechlorinating Dehalococcoides population in the Bachman culture; test: Reductive dechlorination kinetics of chloroethenes in the VC-dechlorinating Bachman enrichment culture; format: cell-based, Dehalococcoides sp.; conditions: for Dechlorination by the culture after prolonged enrichment with VC: chloroethene added alone, without DCEs or VC; for Ks (half-velocity coefficient) / kX (maximum aqueous dechlorination rate): pyruvate-fed cultures, Monod equation, nonlinear regression
Experimental: All experiments were carried out in serum bottles (160 ml nominal volume) containing 100 ml (final volume) of growth medium, which were sealed with black butyl rubber septa (Wheaton, Ochelata, Okla.). Anoxic, bicarbonate-buffered mineral salts medium was prepared, and was amended with pyruvate (10 mM), lactate (5 mM or 10 mM), acetate plus formate (5 mM each), or acetate (5 mM) as substrates. Löffler et al., Appl. Environ. Microbiol., 1997, 63:4982-4985. Unless indicated otherwise, H2 was only added to acetate-fed cultures at a partial pressure of 9 kPa. Routinely, L-cysteine and Na2S×9 H2O (0.2 mM each) were used to chemically reduce the medium. DL-dithiothreitol (DTT) was tested at 0.5 mM concentration. Titanium(III) (0.5 mM) was added from a filter-sterilized citrate solution after the medium had been autoclaved. Löffler et al., Appl. Environ. Microbial., 1996, 62:3809-3813; Zehnder et al., Science, 1976, 194:1165-1166. Gaseous VC was added as a single dose of 1 to 6 ml per serum bottle resulting in initial aqueous concentrations ranging from 0.27 to 1.6 mM. Other chloroethenes were added using Hamilton glass syringes (Hamilton, Reno, Nev.) to initial aqueous concentrations ranging from 0.2 to 0.5 mM. Biogenic cis-DCE was produced from PCE (0.5 mM) using a culture of ‘Desulfuromonas michiganensis’.
After complete dechlorination to cis-DCE (0.5 mM), the cultures were amended with pyruvate and inoculated with the VC-dechlorinating culture. New cultures were routinely seeded with a 2% (vol/vol) inoculum using plastic syringes. To minimize the contact of the inoculum with air present in the plastic of the syringes during transfers, the syringes were reduced with a sterile 0.5 mM aqueous sulfide solution for 5-10 min prior to transfers. Gaseous substrates were added with plastic syringes that had been previously flushed with H2- and O2-free N2.
All experiments were set up in triplicates, and all results were verified by at least one additional independent experiment. Culture bottles were incubated upside down at room temperature (22-25° C.) without agitation in the dark, unless indicated otherwise. Duplicate controls (no inoculum or autoclaved inoculum) accompanied each experiment. Ethene formation strictly depended on a viable inoculum, and loss of VC through the septum was negligible.
Chloroethenes were measured with a Hewlett Packard model 6890 gas chromatograph equipped with a HP-624 column (60 m length, 0.32 mm diameter, 1.8 μm film thickness) and a flame ionization detector (FID). Headspace samples of 100 μl were withdrawn with gas-tight 250 μl Hamilton glass syringes with Teflon-lined valves (model # 1725), and manually injected into a split injector operated at a split ratio of 2:1. All syringes were flushed with H2- and O2-free N2 gas to prevent contamination of the cultures with these gases. A temperature program that allowed the simultaneous analysis of all chloroethenes and ethene was described previously. He et al., Environ. Sci. Technol., 2002, 36: 3945-3952. Standards were prepared as described and 7-point calibration curves were established for all chloroethenes and ethene at room temperature. Gossett, Environ. Sci. Technol., 1987, 21: 202-208. The instrument detection limits for VC and ethene were 7.3 and 8.6 μM, respectively. For quantification of VC and ethene at different temperatures, concentrations of each compound were determined from 3-point calibration curves.
[formula] was used to describe the substrate reaction kinetics, where S is the chloroethene concentration, KS is the half-saturation coefficient, k is the maximum chloroethene dechlorination rate per unit of biomass, and X is the dechlorinating biomass concentration. It was assumed that Xlag was zero during the lag period due to the small inoculum transferred, and X remained constant during the phase of active dechlorination due to slow growth of the dechlorinating population(s). […]

Structure (SMILES)	Dimensionless Henry coefficient [1]	Ks (half-velocity coefficient) [2]	kX (maximum aqueous dechlorination rate) [2]	other results
C=C(Cl)Cl [1,1-DCE]	1.069	–	–	–
ClC(Cl)=C(Cl)Cl [PCE, Perchloroethene]	–	–	–	Dechlorination by the culture after prolonged enrichment with VC [2]: failed to dechlorinate
ClC=C(Cl)Cl [TCE, trichloroethene]	–	–	–	Dechlorination by the culture after prolonged enrichment with VC [2]: failed to dechlorinate
C=CCl [VC, vinyl chloride]	1.137	5.8 ± 0.4 µM	54.4 ± 3.5 μMday^−1	VC dechlorination rate ([2]; acetate-enriched cultures): 2.4 ± 0.5 µmol/L/day
CC1(C)S[C@@H]2[C@H](NC(=O)[C@H](N)c3ccccc3)C(=O)N2[C@H]1C(=O)O [ampicillin, reference compound]	–	–	–	Effect on dechlorination rates of DCEs and VC to ethene ([2]; compared with cultures without the antibiotic): about one third less
Cl/C=C\Cl [cis-DCE]	0.167	8.9 ± 0.4 µM	23.1 ± 0.8 μMday^−1	–
Cl/C=C/Cl [trans-DCE]	0.384	8.5 ± 0.3 µM	26.2 ± 0.7 μMday^−1	–
